This note sets out measurements from publication PMC8587151, “Dibenzofuran Derivatives Inspired from Cercosporamide as Dual Inhibitors of Pim and CLK1 Kinases” (Molecules, 2021).

The melting point is the temperature, or range, at which the solid turns liquid.

T4 sequence (P11309 whole entry): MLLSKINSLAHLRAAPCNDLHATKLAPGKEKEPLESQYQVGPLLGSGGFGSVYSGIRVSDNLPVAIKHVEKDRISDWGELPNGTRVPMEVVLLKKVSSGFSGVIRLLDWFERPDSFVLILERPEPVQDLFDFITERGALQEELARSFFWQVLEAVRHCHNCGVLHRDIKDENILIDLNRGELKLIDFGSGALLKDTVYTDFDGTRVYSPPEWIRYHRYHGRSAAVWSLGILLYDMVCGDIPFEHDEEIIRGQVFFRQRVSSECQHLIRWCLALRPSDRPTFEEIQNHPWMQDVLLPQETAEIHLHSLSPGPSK
T2 sequence (P50750 whole entry): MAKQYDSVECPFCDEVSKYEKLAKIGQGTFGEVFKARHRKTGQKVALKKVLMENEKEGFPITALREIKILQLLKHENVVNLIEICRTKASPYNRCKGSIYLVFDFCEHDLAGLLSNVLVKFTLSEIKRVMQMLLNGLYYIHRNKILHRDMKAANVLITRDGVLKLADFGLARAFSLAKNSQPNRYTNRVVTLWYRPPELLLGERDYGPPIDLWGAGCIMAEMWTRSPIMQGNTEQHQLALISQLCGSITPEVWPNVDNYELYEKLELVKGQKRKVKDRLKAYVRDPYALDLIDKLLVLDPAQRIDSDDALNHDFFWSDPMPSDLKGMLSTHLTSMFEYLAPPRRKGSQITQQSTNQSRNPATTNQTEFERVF
T2 sequence (O60563 whole entry partner): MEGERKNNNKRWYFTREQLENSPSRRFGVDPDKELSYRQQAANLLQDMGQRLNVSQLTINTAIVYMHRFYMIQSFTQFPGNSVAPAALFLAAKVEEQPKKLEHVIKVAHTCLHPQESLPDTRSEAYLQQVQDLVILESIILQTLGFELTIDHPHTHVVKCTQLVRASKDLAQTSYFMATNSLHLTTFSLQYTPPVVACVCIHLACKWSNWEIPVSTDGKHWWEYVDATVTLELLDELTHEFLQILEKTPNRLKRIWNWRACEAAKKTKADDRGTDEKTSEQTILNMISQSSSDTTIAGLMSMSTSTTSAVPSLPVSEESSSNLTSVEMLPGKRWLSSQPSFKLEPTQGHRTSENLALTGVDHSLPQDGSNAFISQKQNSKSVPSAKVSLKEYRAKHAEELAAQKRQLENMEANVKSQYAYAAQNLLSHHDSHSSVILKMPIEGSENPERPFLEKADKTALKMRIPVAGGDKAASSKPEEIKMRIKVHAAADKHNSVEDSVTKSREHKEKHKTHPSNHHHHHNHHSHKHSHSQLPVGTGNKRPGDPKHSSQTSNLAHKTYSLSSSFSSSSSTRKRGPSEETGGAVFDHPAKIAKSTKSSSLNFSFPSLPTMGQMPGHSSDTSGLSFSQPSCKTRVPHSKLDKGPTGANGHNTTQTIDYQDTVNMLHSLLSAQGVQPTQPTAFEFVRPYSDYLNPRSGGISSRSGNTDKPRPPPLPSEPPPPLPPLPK

For one series, the target named is T1, MmCLK1 (Mus musculus, UniProt P22518).
T1 construct: made in house; host or cells: Escherichia coli BL21 DE3 pLysS
T1 sequence (P22518 whole entry): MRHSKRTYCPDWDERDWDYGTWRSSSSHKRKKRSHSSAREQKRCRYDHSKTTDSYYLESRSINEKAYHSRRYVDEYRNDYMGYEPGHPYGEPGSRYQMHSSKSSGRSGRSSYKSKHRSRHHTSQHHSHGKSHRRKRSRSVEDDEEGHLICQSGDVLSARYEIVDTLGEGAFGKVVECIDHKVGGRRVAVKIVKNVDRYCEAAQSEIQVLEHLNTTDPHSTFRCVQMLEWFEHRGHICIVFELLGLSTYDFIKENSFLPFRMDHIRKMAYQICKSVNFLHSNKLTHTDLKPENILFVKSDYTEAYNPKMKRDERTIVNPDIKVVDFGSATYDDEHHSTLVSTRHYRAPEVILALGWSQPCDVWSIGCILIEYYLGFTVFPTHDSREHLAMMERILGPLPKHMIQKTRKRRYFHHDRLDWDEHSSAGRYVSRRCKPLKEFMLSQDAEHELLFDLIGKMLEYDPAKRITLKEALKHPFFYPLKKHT
In words: Kinase assay, luminescent ADP-Glo, 10 µM ATP. As to conditions: ADP-Glo, 10 µM ATP, duplicate; read-out: Kinase Enzymatic IC50 CLK1. The series is classed as biochemical. On the procedure:
(§1) The synthesized compounds were tested using a luminescence-based assay against a panel of nine kinases: Pim-1, Pim-2, CDK5/p25, CDK9/CyclinT, Haspin, CK1ε, and GSK3β (from human); DYRK1A (from Rattus norvegicus); and CLK1 (from Mus musculus).
(§2) Kinase enzymatic activities were assayed with 10 µM ATP in 384-well plates using the luminescent ADP-Glo^TM assay (Promega, Madison, WI, USA) according to the recommendations of the manufacturer (see [56] for details on this method). The transmitted signal was measured using the Envision (PerkinElmer, Waltham, MA, USA) microplate luminometer and expressed in relative light unit (RLU). In order to determine the half maximal inhibitory concentration (IC50), the assays were performed in duplicate in the absence or presence of increasing doses of the tested compounds. GraphPad Prism6 software (GraphPad Software, San Diego, CA, USA) was used to fit dose–response curves and to determine the IC50 values. Kinase activities are expressed in % of maximal activity, i.e., measured in the absence of inhibitor. Peptide substrates were obtained from Proteogenix (Schiltigheim, France).
(§3) For kinases expressed in bacteria, the Escherichia coli BL21 DE3 pLysS strain (Invitrogen, ThermoFisher Scientific, Waltham, MA, USA) was transformed with pGEX-2T-1 (Sigma-Aldrich, St. Louis, MO, USA) containing the coding region of the corresponding kinase. For kinases expressed in Sf9 insect cells, the coding region of the corresponding kinase was cloned in pFastBac^TM vector. Purification of the recombinant kinases was performed following the protocol “Bac-to-Bac® Baculovirus Expression System” provided by the manufacturer (Invitrogen, ThermoFisher Scientific, Waltham, MA, USA).
(§4) To validate the kinase assay, model inhibitors were used for each tested enzyme: Staurosporine from Streptomyces sp. (#S5921, purity ≥ 95%, Sigma-Aldrich) for HsCK1ε; Indirubin-30-oxime (#I0404, purity ≥ 98%, Sigma-Aldrich) for HsGSK-3β, HsPim-1 and 2, human cyclin-dependent kinases, RnDYRK1A and MmCLK1; CHR-6494 (#SML0648, purity ≥ 98%, Sigma-Aldrich) for Haspin.
(In ADP-Glo the light output rises with the ADP produced.)
As for `NC(=O)c1c(O)cc(O)c2c1oc1c(N)cccc12` [Compound 16, 6-Amino-1,3-dihydroxydibenzo[b,d]furan-4-carboxamide], the IC50 is 0.45 µM.

Consider `NC(=O)c1c(O)cc(O)c2c1oc1ccccc12` [Compound 17, 1,3-Dihydroxydibenzo[b,d]furan-4-carboxamide], for which the IC50 turned out to be 0.26 µM.

As for `NC(=O)c1c(O)cc(O)c2c1oc1cc(O)ccc12` [Compound 44, 1,3,7-Trihydroxydibenzo[b,d]furan-4-carboxamide], the IC50 amounted to 0.026 µM.

Another series has as its target T2, HsCDK9/CyclinT (Homo sapiens, UniProt P50750).
T2 construct: made in house; host or cells: Sf9 insect cells (baculovirus, pFastBac)
In words: Kinase assay, luminescent ADP-Glo, 10 µM ATP. As to conditions: duplicate, read-out: Kinase Enzymatic IC50 CDK9/CyclinT. The format is biochemical. How it is done: as §1, §2, §3, §4
As for `NC(=O)c1c(O)cc(O)c2c1oc1c(N)cccc12` [Compound 16, 6-Amino-1,3-dihydroxydibenzo[b,d]furan-4-carboxamide], the IC50 is greater than 10 µM.

Turning to `NC(=O)c1c(O)cc(O)c2c1oc1cc(O)ccc12` [Compound 44, 1,3,7-Trihydroxydibenzo[b,d]furan-4-carboxamide], the IC50 was greater than 10 µM.

Another series deals with T3, HsPim-2 (Homo sapiens, UniProt Q9P1W9).
T3 construct: made in house; host or cells: Escherichia coli BL21 DE3 pLysS
T3 sequence (Q9P1W9 whole entry): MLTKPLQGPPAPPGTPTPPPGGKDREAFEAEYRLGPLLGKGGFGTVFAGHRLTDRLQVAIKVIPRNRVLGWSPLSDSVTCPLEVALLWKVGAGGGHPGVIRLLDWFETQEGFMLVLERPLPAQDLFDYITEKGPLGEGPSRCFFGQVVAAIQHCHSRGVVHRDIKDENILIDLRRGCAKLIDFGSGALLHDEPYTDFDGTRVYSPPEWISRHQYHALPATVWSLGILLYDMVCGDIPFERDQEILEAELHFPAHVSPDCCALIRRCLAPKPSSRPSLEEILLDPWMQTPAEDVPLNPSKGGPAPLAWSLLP
In words: Kinase assay, luminescent ADP-Glo, 10 µM ATP. As to conditions: mean of n ≥ 3, read-out: IC50 Pim-2. The format is biochemical. How it is done: as §1, §2, §3, §4
On to `NC(=O)c1c(O)cc(O)c2c1oc1c(N)cccc12` [Compound 16, 6-Amino-1,3-dihydroxydibenzo[b,d]furan-4-carboxamide], for which the IC50 was 0.085 µM.

`NC(=O)c1c(O)cc(O)c2c1oc1cc(O)ccc12` [Compound 44, 1,3,7-Trihydroxydibenzo[b,d]furan-4-carboxamide]: the IC50 was 0.035 µM.

The next series has as its target T4, HsPim-1 (Homo sapiens, UniProt P11309).
T4 construct: made in house; host or cells: Escherichia coli BL21 DE3 pLysS
Nature of the series: Kinase assay, luminescent ADP-Glo, 10 µM ATP. As to conditions: Table 1; ADP-Glo, 10 µM ATP, duplicate; read-out: Kinase Enzymatic IC50 Pim-1. The format is biochemical. On the procedure:
as §1, §2, §3, §4
For the molecule `NC(=O)c1c(O)cc(O)c2c1oc1c(N)cccc12` [Compound 16, 6-Amino-1,3-dihydroxydibenzo[b,d]furan-4-carboxamide], the IC50 came out at 0.13 µM.

In the case of `NC(=O)c1c(O)cc(O)c2c1oc1ccccc12` [Compound 17, 1,3-Dihydroxydibenzo[b,d]furan-4-carboxamide], the IC50 was determined as 0.23 µM.

Consider `NC(=O)c1c(O)cc(O)c2c1oc1cc(O)ccc12` [Compound 44, 1,3,7-Trihydroxydibenzo[b,d]furan-4-carboxamide], for which the IC50 came out at 0.06 µM.

The same series, now with this note: Table 2; ADP-Glo, 10 µM ATP, mean of n ≥ 3; read-out: IC50 Pim-1.
Regarding `NC(=O)c1c(O)cc(O)c2c1oc1c(N)cccc12` [Compound 16, 6-Amino-1,3-dihydroxydibenzo[b,d]furan-4-carboxamide], the IC50 turned out to be 0.13 µM.

For `NC(=O)c1c(O)cc(O)c2c1oc1ccccc12` [Compound 17, 1,3-Dihydroxydibenzo[b,d]furan-4-carboxamide], the IC50 was found to be 0.23 µM.

Regarding `NC(=O)c1c(O)cc(O)c2c1oc1cc(O)ccc12` [Compound 44, 1,3,7-Trihydroxydibenzo[b,d]furan-4-carboxamide], the IC50 was 0.06 µM.

In the next series the target is T5, HsCDK5/p25 (Homo sapiens, UniProt Q00535).
T5 construct: made in house; host or cells: Escherichia coli BL21 DE3 pLysS
T5 sequence (Q00535 whole entry): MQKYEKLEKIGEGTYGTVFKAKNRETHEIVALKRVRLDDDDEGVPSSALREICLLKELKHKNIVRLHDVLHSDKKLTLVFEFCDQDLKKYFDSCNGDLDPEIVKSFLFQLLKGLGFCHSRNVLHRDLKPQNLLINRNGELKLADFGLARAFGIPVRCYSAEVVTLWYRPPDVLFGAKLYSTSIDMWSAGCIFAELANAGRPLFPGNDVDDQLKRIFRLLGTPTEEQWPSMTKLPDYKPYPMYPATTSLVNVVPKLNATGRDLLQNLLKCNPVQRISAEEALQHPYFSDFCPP
T5 sequence (Q15078 99-307 partner limits assumed): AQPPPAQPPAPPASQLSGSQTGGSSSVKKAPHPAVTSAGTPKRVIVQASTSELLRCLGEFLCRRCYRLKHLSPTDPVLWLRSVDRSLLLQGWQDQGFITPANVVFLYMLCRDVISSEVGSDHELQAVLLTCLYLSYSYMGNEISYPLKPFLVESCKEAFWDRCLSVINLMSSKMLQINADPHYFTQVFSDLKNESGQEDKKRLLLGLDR
Nature of the series: Kinase assay, luminescent ADP-Glo, 10 µM ATP. To be noted: duplicate, read-out: Kinase Enzymatic IC50 CDK5/p25. The format is biochemical. How it is done: as §1, §2, §3, §4
On to `NC(=O)c1c(O)cc(O)c2c1oc1c(N)cccc12` [Compound 16, 6-Amino-1,3-dihydroxydibenzo[b,d]furan-4-carboxamide], for which the IC50 was greater than 10 µM.

On to `NC(=O)c1c(O)cc(O)c2c1oc1cc(O)ccc12` [Compound 44, 1,3,7-Trihydroxydibenzo[b,d]furan-4-carboxamide], for which the IC50 was greater than 10 µM.

The next series concerns L929 cells. Nature of the series: MTT assay, in vitro toxicity on normal cells. The format is cell-based. To be noted: 72 h, normal mouse fibroblasts. The source says: (§5) Various types of hematological malignancies were selected for in vitro testing: the human acute myeloid leukemia (AML) cell line MV4-11, and the human chronic myeloid leukemia (CML) cell lines KU812 and K562. Indeed, Pim kinases are overexpressed in a wide range of hematopoietic malignancies. Solid tumors were also included in the panel of tested cell lines: MCF-7 (human breast adenocarcinoma), HT-29 (human colon adenocarcinoma), and HeLa (human cervical cancer) cells. Cytotoxic effects were evaluated using an MTT assay, and living cells were also counted with the trypan blue dye exclusion method for MV4-11, KU812, and K562 cells.
(§6) The cancer cell lines MCF-7, HT-29, and HeLa were obtained from Cell Bank of Rio de Janeiro, Brazil, and were grown in RPMI-1640 medium and L929 cells were grown in Dulbecco’s Modified Eagle’s Medium (DMEM). Both media were supplemented with fetal bovine serum (FBS) (10% of the final concentration) followed by treatment with penicillin and streptomycin as antibiotics (1% of the final concentration). The crude was incubated in the presence of CO2 atmosphere (5%) for 24 h with the temperature monitored and maintained at 37 °C.
(§7) MCF-7, HT-29, HeLa, and L929 cells (3×10^5 cells/mL) were plated in 96-well plates and incubated in the presence of CO2 atmosphere (5%) for 24 h at 37 °C. […] Then, 25 μL of MTT (5 mg/mL in PBS) were added to each well and the plates were left for another 3 h in the incubator at 37 °C and at the end of this period, the supernatant was aspirated. To perform the reading, 100 μL of dimethylsulfoxide (DMSO) were added in each well for the dissolution of the formazan crystals. The amount of formazan was measured by reading the plate at 560 nm absorbance. […] Each sample was tested in triplicate in two independent experiments.
Molecule `NC(=O)c1c(O)cc(O)c2c1oc1c(N)cccc12` [Compound 16, 6-Amino-1,3-dihydroxydibenzo[b,d]furan-4-carboxamide] had an IC50 greater than 100 µM.

Molecule `NC(=O)c1c(O)cc(O)c2c1oc1ccccc12` [Compound 17, 1,3-Dihydroxydibenzo[b,d]furan-4-carboxamide] had an IC50 greater than 100 µM.

In turn, `NC(=O)c1c(O)cc(O)c2c1oc1cc(O)ccc12` [Compound 44, 1,3,7-Trihydroxydibenzo[b,d]furan-4-carboxamide] returned an IC50 of 28.4 ± 1.1 µM.

Tested on in a further series: not given
Assay: not given
Settings: not given
For the molecule `NC(=O)c1c(O)cc(O)c2c1oc1ccccc12` [Compound 17, 1,3-Dihydroxydibenzo[b,d]furan-4-carboxamide], the melting point lay within 219 to 220 °C.

For another series, the system named is KU812 cells. Nature of the series: MTT cell proliferation assay. The series is classed as cell-based. As to conditions: Homo sapiens, 48 h, mean ± SEM.
Excerpt: as §5
(§8) MV4-11, K562, and KU812 cell lines were obtained from the Deutshe Sammlung von Mikroorganismens und Zellkulturen (DSMZ) and maintained according to the supplier’s recommendations. All cell lines were cultured in RPMI, with 10% fetal bovine serum, 1% glutamine, and 1% penicillin/ streptomycin at 37 °C and 5% CO2.
(§9) MV4-11, K562, and KU812 cells’ viability was studied using a MTT cell proliferation assay.
(§10) MV4-11, K562, and KU812 cells were incubated with 10 μL of MTT working solution (5 g/L of methylthiazolyldiphenyl-tetrazolium bromide from Sigma Aldrich, Lyon, France) for 4 h. Cells were then lysed overnight at 37 °C with 100 μL of 10% SDS and 0.003% HCl. Optical density (OD) at 570 nm was measured using a spectrophotometer CLARIOstar® (BMG Labtech, Offenburg, Germany). Living cells were also counted with the trypan blue dye exclusion method. […] Data were collected from at least three independent experiments and the values reported are means ± standard errors of the mean (SEM).
As to `NC(=O)c1c(O)cc(O)c2c1oc1c(N)cccc12` [Compound 16, 6-Amino-1,3-dihydroxydibenzo[b,d]furan-4-carboxamide], the IC50 is greater than 100 µM.

`NC(=O)c1c(O)cc(O)c2c1oc1ccccc12` [Compound 17, 1,3-Dihydroxydibenzo[b,d]furan-4-carboxamide] displayed an IC50 greater than 100 µM.

As for `NC(=O)c1c(O)cc(O)c2c1oc1cc(O)ccc12` [Compound 44, 1,3,7-Trihydroxydibenzo[b,d]furan-4-carboxamide], the IC50 came out at 42.1 ± 1.3 µM.

The test system of a further series is K562 cells. Nature of the series: MTT cell proliferation assay. The format is cell-based. To be noted: Homo sapiens, 48 h, mean ± SEM.
Excerpt: as §5, §8, §9, §10
With `NC(=O)c1c(O)cc(O)c2c1oc1c(N)cccc12` [Compound 16, 6-Amino-1,3-dihydroxydibenzo[b,d]furan-4-carboxamide], the IC50 is greater than 100 µM.

`NC(=O)c1c(O)cc(O)c2c1oc1ccccc12` [Compound 17, 1,3-Dihydroxydibenzo[b,d]furan-4-carboxamide] returned an IC50 greater than 100 µM.

With `NC(=O)c1c(O)cc(O)c2c1oc1cc(O)ccc12` [Compound 44, 1,3,7-Trihydroxydibenzo[b,d]furan-4-carboxamide], the IC50 was determined as 75.7 ± 11.8 µM.

A further series deals with MV4-11 cells. In words: MTT cell proliferation assay. The format is cell-based, human. As to conditions: Homo sapiens, MV4-11, 48 h, mean ± SEM.
Excerpt: as §5, §8, §9, §10
`NC(=O)c1c(O)cc(O)c2c1oc1c(N)cccc12` [Compound 16, 6-Amino-1,3-dihydroxydibenzo[b,d]furan-4-carboxamide] had an IC50 of 10.1 ± 0.8 µM.

Turning to `NC(=O)c1c(O)cc(O)c2c1oc1ccccc12` [Compound 17, 1,3-Dihydroxydibenzo[b,d]furan-4-carboxamide], the IC50 came out at 14.3 ± 1.1 µM.

Molecule `NC(=O)c1c(O)cc(O)c2c1oc1cc(O)ccc12` [Compound 44, 1,3,7-Trihydroxydibenzo[b,d]furan-4-carboxamide] came in with an IC50 of 2.6 ± 0.4 µM.

Another series concerns HeLa cells. Nature of the series: MTT cytotoxicity assay. The series is classed as cell-based. To be noted: Homo sapiens, 72 h.
Excerpt: as §5, §6, §7
In general terms: Formazan colour is commonly taken as a measure of viable cells.
Regarding `NC(=O)c1c(O)cc(O)c2c1oc1c(N)cccc12` [Compound 16, 6-Amino-1,3-dihydroxydibenzo[b,d]furan-4-carboxamide], the IC50 worked out at 14.6 ± 7.2 µM.

`NC(=O)c1c(O)cc(O)c2c1oc1ccccc12` [Compound 17, 1,3-Dihydroxydibenzo[b,d]furan-4-carboxamide] registered an IC50 of 9.5 ± 4.1 µM.

In turn, `NC(=O)c1c(O)cc(O)c2c1oc1cc(O)ccc12` [Compound 44, 1,3,7-Trihydroxydibenzo[b,d]furan-4-carboxamide] came in with an IC50 of 10.2 ± 1.2 µM.

The subject of another series is MCF-7 cells. Nature of the series: MTT cytotoxicity assay. The series is classed as cell-based. As to conditions: Homo sapiens, MCF7, 72 h.
Excerpt: as §5, §6, §7
`NC(=O)c1c(O)cc(O)c2c1oc1c(N)cccc12` [Compound 16, 6-Amino-1,3-dihydroxydibenzo[b,d]furan-4-carboxamide] registered an IC50 greater than 100 µM.

As to `NC(=O)c1c(O)cc(O)c2c1oc1ccccc12` [Compound 17, 1,3-Dihydroxydibenzo[b,d]furan-4-carboxamide], the IC50 was greater than 100 µM.

`NC(=O)c1c(O)cc(O)c2c1oc1cc(O)ccc12` [Compound 44, 1,3,7-Trihydroxydibenzo[b,d]furan-4-carboxamide] yielded an IC50 of 52.5 ± 1.2 µM.
